Consider six compounds from the NIST ThermoML archive (doi:10.1021/acs.jced.8b00585).

Numbers after ± are expanded uncertainties.

For this series the following is noted: Liquid; for Critical pressure: Direct measurement; for Critical temperature: Visual observation in an unstirred cell.

With `CCCCO` [butan-1-ol], the Critical pressure is 4406 ± 22 kPa and the Critical temperature came to 563 ± 0.4 K.

In the case of `CCCCCCCCCC` [decane], the Critical pressure turned out to be 2106 ± 15 kPa and the Critical temperature worked out at 617.7 ± 0.4 K.

As for `CCCCCCC` [heptane], the Critical pressure was 2736 ± 17 kPa and the Critical temperature amounted to 540.1 ± 0.4 K.

As to `CCCCCC` [hexane], the Critical pressure is given as 3033 ± 18 kPa and the Critical temperature was 507.8 ± 0.4 K.

`CCCCCCCCC` [nonane]: the Critical pressure is recorded as 2278 ± 16 kPa and the Critical temperature is reported as 594.5 ± 0.4 K.

On to `CCCCCCCC` [octane], for which the Critical pressure stood at 2496 ± 16 kPa and the Critical temperature amounted to 568.9 ± 0.4 K.
